Reference: PubChem BioAssay AID248 (DTP/NCI, 2004)
Inconclusive results and toxic doses are left out.

Test system: L1210 leukemia ip in BDF1 mice, survival T/C
Test: NCI In Vivo Anticancer Drug Screen. Data for tumor model L1210 Leukemia (intraperitoneal) in B6D2F1 (BDF1) mice
Settings: endpoint: mean survival time, higher = longer survival
Procedure, shortened: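 Transplantable tumor model; survival measured in treated vs vehicle control mice. Value = treated/control.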

[1] = dose: 200.0 mg/kg/injection, schedule: Q01DX009 (ip), vehicle: Klucel (hydroxypropylcellulose) (HPC)
[2] = dose: 400.0 mg/kg/injection, schedule: Q01DX009 (ip), vehicle: Klucel (hydroxypropylcellulose) (HPC)
[3] = dose: 100.0 mg/kg/injection, schedule: Q04DX003 (ip), vehicle: saline
[4] = dose: 200.0 mg/kg/injection, schedule: Q04DX003 (ip), vehicle: saline

With `CCCCCCCCCCCCCC[n+]1ccc(C#N)cc1` the T/C (dose: 7.5 mg/kg/injection, schedule: Q04DX003 (ip), vehicle: saline) was 101 % of control, the T/C (dose: 15.0 mg/kg/injection, schedule: Q04DX003 (ip), vehicle: saline) was 95 % of control and the T/C (dose: 30.0 mg/kg/injection, schedule: Q04DX003 (ip), vehicle: saline) was 96 % of control.
For `Cc1ccc(S(=O)(=O)NN=C2CCC(C(C)(C)C)CC2)cc1` (stereo not drawn), the T/C (dose: 100.0 mg/kg/injection, schedule: Q01DX009 (ip), vehicle: saline with Tween-80) was 88 % of control, the T/C (dose: 100.0 mg/kg/injection, schedule: Q04DX003 (ip), vehicle: other) was 91 % of control and the T/C (dose: 200.0 mg/kg/injection, schedule: Q01DX009 (ip), vehicle: saline with Tween-80) was 88 % of control. For the same compound, the T/C (dose: 200.0 mg/kg/injection, schedule: Q04DX003 (ip), vehicle: other) was 89 % of control, the T/C (dose: 400.0 mg/kg/injection, schedule: Q01DX009 (ip), vehicle: saline with Tween-80) was 91 % of control and the T/C (dose: 400.0 mg/kg/injection, schedule: Q04DX003 (ip), vehicle: other) was 96 % of control.
For `CCOC(=O)Nc1cc2[nH]cnc2c(NC(=O)OCC)n1`, the T/C (dose: 75.0 mg/kg/injection, schedule: Q01DX001 (ip), vehicle: saline) was 95 % of control, the T/C (dose: 150.0 mg/kg/injection, schedule: Q01DX001 (ip), vehicle: saline) was 101 % of control and the T/C (dose: 300.0 mg/kg/injection, schedule: Q01DX001 (ip), vehicle: saline) was 92 % of control.
`NC(=S)N/N=C\c1ccccn1` was tested, and the T/C (dose: 6.25 mg/kg/injection, schedule: Q01DX009 (ip), vehicle: saline with Tween-80) was 123 % of control, the T/C (dose: 6.25 mg/kg/injection, schedule: Q04DX003 (ip), vehicle: saline with Tween-80) was 103 % of control and the T/C (dose: 8.0 mg/kg/injection, schedule: Q01DX009 (ip), vehicle: saline with Tween-80) was 160 % of control. The T/C (dose: 12.0 mg/kg/injection, schedule: Q01DX009 (ip), vehicle: saline with Tween-80) was 165 % of control, the T/C (dose: 12.5 mg/kg/injection, schedule: Q04DX003 (ip), vehicle: saline with Tween-80) was 102 % of control and the T/C (dose: 25.0 mg/kg/injection, schedule: Q04DX003 (ip), vehicle: saline with Tween-80) was 98 % of control.
For `CN(C)N=Nc1ccc(C(=O)Oc2ccc3c(c2)CCC2C3CCC3(C)C(=O)CCC23)cc1` (stereo not drawn), the T/C (dose: 100.0 mg/kg/injection, schedule: Q01DX009 (ip), vehicle: Klucel (hydroxypropylcellulose) (HPC)) was 90 % of control, the T/C [1] was 92 % of control and the T/C [2] was 88 % of control.
With `Cc1ccc(S(=O)(=O)NC(=O)Oc2c(C(C)C)cccc2C(C)C)cc1` the T/C (dose: 50.0 mg/kg/injection, schedule: Q04DX003 (ip), vehicle: saline) was 110 % of control, the T/C [3] was 110 % of control and the T/C [4] was 102 % of control.
`O=C(CCC(=O)Oc1ccc(S(=O)(=O)F)cc1)Oc1ccc(S(=O)(=O)F)cc1` was tested, and the T/C [3] was 92 % of control, the T/C [4] was 118 % of control and the T/C (dose: 400.0 mg/kg/injection, schedule: Q04DX003 (ip), vehicle: saline) was 103 % of control.
`O=C1CCCCCCCCCC/C(=N/O)CCCO1` was tested, and the T/C (dose: 100.0 mg/kg/injection, schedule: Q01DX001 (ip), vehicle: saline with Tween-80) was 100 % of control, the T/C (dose: 200.0 mg/kg/injection, schedule: Q01DX001 (ip), vehicle: saline with Tween-80) was 92 % of control and the T/C (dose: 400.0 mg/kg/injection, schedule: Q01DX001 (ip), vehicle: saline with Tween-80) was 89 % of control.
With `Cc1cc2c(cc1C)C(O)C(N1CCCCC1)CCC2` (stereo not drawn) the T/C (dose: 100.0 mg/kg/injection, schedule: Q04DX003 (ip), vehicle: saline with Tween-80) was 100 % of control, the T/C (dose: 200.0 mg/kg/injection, schedule: Q04DX003 (ip), vehicle: saline with Tween-80) was 92 % of control and the T/C (dose: 400.0 mg/kg/injection, schedule: Q04DX003 (ip), vehicle: saline with Tween-80) was 90 % of control.
With `O=NC1C(Cl)C2CC1C1CCCC21` (stereo not drawn) the T/C (dose: 100.0 mg/kg/injection, schedule: Q04DX003 (ip), vehicle: Klucel (hydroxypropylcellulose) (HPC)) was 95 % of control, the T/C [1] was 92 % of control and the T/C (dose: 200.0 mg/kg/injection, schedule: Q04DX003 (ip), vehicle: Klucel (hydroxypropylcellulose) (HPC)) was 92 % of control. The T/C [2] was 96 % of control and the T/C (dose: 400.0 mg/kg/injection, schedule: Q04DX003 (ip), vehicle: Klucel (hydroxypropylcellulose) (HPC)) was 94 % of control.
